According to patent publication US20250179103A1, “6-OXODECAHYDROPYRROLO[1,2-A][1,5]DIAZOCINE AND 6-OXODECAHYDRO-4H-PYRROLO[2,1-D][1,5]THIAZOCINE DERIVATIVES AS STAT3 AND STAT6 MODULATORS FOR THE TREATMENT OF CANCER AND INFLAMMATORY CONDITIONS” (Recludix Pharma, Inc., priority 2022, published 2025):

Tests used:
[1] = target: T1, Recombinant STAT6 protein (STAT6(W123-T658)) (Homo sapiens, UniProt P42226); experiment: STAT6 Fluorescence Polarization (FP) Assay; format: binding; conditions: STAT6(W123-T658) 250 nM, probe 5-FAM-ApYKPFQDLI-NH2 2 nM, 45-minute incubation
T1 construct: Recombinant STAT6 protein (STAT6(W123-T658))
T1 sequence (P42226 123-658): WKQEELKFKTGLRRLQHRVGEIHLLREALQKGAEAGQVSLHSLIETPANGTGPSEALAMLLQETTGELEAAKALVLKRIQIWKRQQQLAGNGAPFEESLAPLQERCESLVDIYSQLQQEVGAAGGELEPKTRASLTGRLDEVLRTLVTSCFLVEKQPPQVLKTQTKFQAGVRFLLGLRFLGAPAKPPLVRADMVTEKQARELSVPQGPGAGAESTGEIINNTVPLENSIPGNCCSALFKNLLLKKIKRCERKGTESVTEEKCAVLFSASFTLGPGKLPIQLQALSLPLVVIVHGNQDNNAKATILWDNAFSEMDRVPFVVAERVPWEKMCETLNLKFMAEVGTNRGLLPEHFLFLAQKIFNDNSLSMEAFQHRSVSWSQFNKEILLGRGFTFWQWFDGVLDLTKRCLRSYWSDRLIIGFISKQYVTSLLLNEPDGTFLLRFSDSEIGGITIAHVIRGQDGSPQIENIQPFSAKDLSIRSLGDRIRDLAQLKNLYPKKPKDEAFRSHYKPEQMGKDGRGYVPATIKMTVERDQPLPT
How it was run: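 Displacement of a fluorescent phosphotyrosine peptide (5-FAM-ApYKPFQDLI-NH2, 2 nM) from STAT6(W123-T658) (250 nM), 1% DMSO, pH 7.4 HEPES buffer. After 45 min at room temperature, polarization (mP) was plotted versus log compound concentration and fitted by nonlinear regression to give IC50.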

[2] = target: T2, Recombinant STAT3 protein (STAT3(G127-I722)) (Homo sapiens, UniProt P40763); experiment: STAT3 Fluorescence Polarization (FP) Assay; format: binding; conditions: STAT3(G127-I722) 25 nM, probe 5-FAM-GpYLPQTV-NH2 2 nM, 45-minute incubation
T2 construct: Recombinant STAT3 protein (STAT3(G127-I722))
How it was run: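 STAT3(G127-I722), 25 nM, was mixed with 2 nM 5-FAM-GpYLPQTV-NH2 probe in HEPES pH 7.4 buffer with 1% DMSO and serially diluted compound. FP (mP) was read after 45 min at room temperature. IC50 came from nonlinear regression.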

T2 sequence (P40763 127-722): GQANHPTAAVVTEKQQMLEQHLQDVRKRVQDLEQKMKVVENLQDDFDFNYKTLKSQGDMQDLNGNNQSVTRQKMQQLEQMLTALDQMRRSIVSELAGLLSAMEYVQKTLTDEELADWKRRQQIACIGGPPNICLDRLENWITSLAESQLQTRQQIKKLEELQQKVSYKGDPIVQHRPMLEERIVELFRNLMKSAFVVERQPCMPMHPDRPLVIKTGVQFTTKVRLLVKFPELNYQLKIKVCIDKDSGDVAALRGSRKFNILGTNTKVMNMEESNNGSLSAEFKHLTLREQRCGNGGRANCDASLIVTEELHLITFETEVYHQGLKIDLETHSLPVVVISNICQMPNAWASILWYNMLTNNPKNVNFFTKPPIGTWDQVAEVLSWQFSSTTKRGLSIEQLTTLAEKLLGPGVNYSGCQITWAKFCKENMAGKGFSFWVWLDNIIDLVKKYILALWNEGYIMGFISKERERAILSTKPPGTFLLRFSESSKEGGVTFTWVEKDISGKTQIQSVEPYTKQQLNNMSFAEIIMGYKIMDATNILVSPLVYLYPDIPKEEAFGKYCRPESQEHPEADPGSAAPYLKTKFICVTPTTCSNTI

Structure (SMILES) | IC50 [1] [µM] | IC50 [2] [µM]
CC(=O)N1CC[C@H]2CC[C@@H](C(=O)Nc3ccc(OCCN(C)C)cc3)N2C(=O)[C@@H](NC(=O)c2cc3cc(C(F)(F)P(=O)(O)O)ccc3s2)C1 [Compound 75, ((2-(((5S,8S,10aR)-3-acetyl-8-((4-(2-(dimethylamino)ethoxy)phenyl)carbamoyl)-6-oxodecahydropyrrolo[1,2-a][1,5]diazocin-5-yl)carbamoyl)benzo[b]thiophen-5-yl)difluoromethyl)phosphonic acid] | 3 to 30 | 1 to 10
COCCOc1ccc(N(C)C(=O)[C@@H]2CC[C@@H]3CCN(C(C)=O)C[C@H](NC(=O)c4cc5cc(C(F)(F)P(=O)(O)O)ccc5[nH]4)C(=O)N32)cc1 [Compound 137, ((2-(((5S,8S,10aR)-3-acetyl-8-((4-(2-methoxyethoxy)phenyl)(methyl)carbamoyl)-6-oxodecahydropyrrolo[1,2-a][1,5]diazocin-5-yl)carbamoyl)-1H-indol-5-yl)difluoromethyl)phosphonic acid] | 0.3 to 3 | 1 to 10
COC(=O)N1CC[C@H]2CC[C@@H](C(=O)N3CCCC3)N2C(=O)[C@@H](NC(=O)c2cc3cc(C(F)(F)P(=O)(O)O)ccc3s2)C1 [Compound 262, (difluoro(2-(((5S,8S,10aR)-3-(methoxycarbonyl)-6-oxo-8-(pyrrolidine-1-carbonyl)decahydropyrrolo[1,2-a][1,5]diazocin-5-yl)carbamoyl)benzo[b]thiophen-5-yl)methyl)phosphonic acid] | 0.3 to 3 | 1 to 10
CC(C)CN1CC[C@H]2CC[C@@H](C(=O)N3C[C@@H](C#N)[C@H](c4ccccc4)C3)N2C(=O)[C@@H](NC(=O)c2cc3cc(C(F)(F)P(=O)(O)O)ccc3s2)C1 (relative stereo) [Compound 279, ((2-(((5S,8S,10aR)-8-((rel-trans)-3-cyano-4-phenylpyrrolidine-1-carbonyl)-3-isobutyl-6-oxodecahydropyrrolo[1,2-a][1,5]diazocin-5-yl)carbamoyl)benzo[b]thiophen-5-yl)difluoromethyl)phosphonic acid] | ≤ 0.3 | 0.1 to 1
CC(=O)N1CC[C@H]2CC[C@@H](C(=O)N3CCC(c4cnc5n4CCCC5)C3)N2C(=O)[C@@H](NC(=O)c2cc3cc(C(F)(F)P(=O)(O)O)ccc3s2)C1 (stereo partly drawn) [Compound 81, ((2-(((5S,8S,10aR)-3-acetyl-6-oxo-8-(3-(5,6,7,8-tetrahydroimidazo[1,2-a]pyridin-3-yl)pyrrolidine-1-carbonyl)decahydropyrrolo[1,2-a][1,5]diazocin-5-yl)carbamoyl)benzo[b]thiophen-5-yl)difluoromethyl)phosphonic acid] | 0.3 to 3 | 0.1 to 1
CC(=O)N1CC[C@H]2CC[C@@H](C(=O)N3CCC4C3CN4c3ccccc3)N2C(=O)[C@@H](NC(=O)c2cc3cc(C(F)(F)P(=O)(O)O)ccc3s2)C1 (stereo partly drawn) [Compound 11, ((2-(((5S,8S,10aR)-3-acetyl-6-oxo-8-(6-phenyl-2,6-diazabicyclo[3.2.0]heptane-2-carbonyl)decahydropyrrolo[1,2-a][1,5]diazocin-5-yl)carbamoyl)benzo[b]thiophen-5-yl)difluoromethyl)phosphonic acid] | 0.3 to 3 | 0.1 to 1
CC(=O)N1CC[C@H]2CC[C@@H](C(=O)N3CC(c4cccnc4)C3)N2C(=O)[C@@H](NC(=O)c2cc3cc(C(F)(F)P(=O)(O)O)ccc3s2)C1 [Compound 122, ((2-(((5S,8S,10aR)-3-acetyl-6-oxo-8-(3-(pyridin-3-yl)azetidine-1-carbonyl)decahydropyrrolo[1,2-a][1,5]diazocin-5-yl)carbamoyl)benzo[b]thiophen-5-yl)difluoromethyl)phosphonic acid] | 0.3 to 3 | ≤ 0.1
Cc1ccc2onc(C(=O)N3CC[C@H]4CC[C@@H](C(=O)N5C[C@@H](C)O[C@@H](C)C5)N4C(=O)[C@@H](NC(=O)c4ccc5ccc(C(F)P(=O)(O)O)cc5c4)C3)c2c1 (stereo partly drawn) [Compound 397, ((7-(((5S,8S,10aR)-8-((2S,6R)-2,6-dimethylmorpholine-4-carbonyl)-3-(5-methylbenzo[d]isoxazole-3-carbonyl)-6-oxodecahydropyrrolo [1,2-a][1,5]diazocin-5-yl)carbamoyl)naphthalen-2-yl)fluoromethyl)phosphonic acid] | ≤ 0.3 | > 10
CC(=O)N1CC[C@H]2CC[C@@H](C(=O)Nc3ccc(-c4ccccc4)c([N+](=O)[O-])c3)N2C(=O)[C@@H](NC(=O)c2cc3cc(C(F)(F)P(=O)(O)O)ccc3s2)C1 [Compound 179, ((2-(((5S,8S,10aR)-3-acetyl-8-((2-nitro-[1,1′-biphenyl]-4-yl)carbamoyl)-6-oxodecahydropyrrolo[1,2-a][1,5]diazocin-5-yl)carbamoyl)benzo[b]thiophen-5-yl)difluoromethyl)phosphonic acid] | 0.3 to 3 | 0.1 to 1
O=C(N[C@H]1CNCC[C@H]2CC[C@@H](C(=O)N3CC(C(=O)N4CCOCC4)C3)N2C1=O)c1cc2cc(C(F)(F)P(=O)(O)O)ccc2s1 [Compound 256, (difluoro(2-(((5S,8S,10aR)-8-(3-(morpholine-4-carbonyl)azetidine-1-carbonyl)-6-oxodecahydropyrrolo[1,2-a][1,5]diazocin-5-yl)carbamoyl)benzo[b]thiophen-5-yl)methyl)phosphonic acid] | 3 to 30 | 0.1 to 1
CC(=O)N1CC[C@H]2CC[C@@H](C(=O)N3CC[C@H](C(=O)N4CCCCC4)C3)N2C(=O)[C@@H](NC(=O)c2cc3cc(C(F)(F)P(=O)(O)O)ccc3s2)C1 [Compound 193, ((2-(((5S,8S,10aR)-3-acetyl-6-oxo-8-((S)-3-(piperidine-1-carbonyl)pyrrolidine-1-carbonyl)decahydropyrrolo[1,2-a][1,5]diazocin-5-yl)carbamoyl)benzo[b]thiophen-5-yl)difluoromethyl)phosphonic acid] | 0.3 to 3 | 0.1 to 1
O=C(N[C@H]1CCN(C(c2ccccc2)c2ccccc2)C[C@H]2CC[C@@H](C(=O)N3CC(c4cccnc4)C3)N2C1=O)c1cc2cc(C(F)(F)P(=O)(O)O)ccc2s1 [Compound 210, ((2-(((5S,8S,10aR)-2-benzhydryl-6-oxo-8-(3-(pyridin-3-yl)azetidine-1-carbonyl)decahydropyrrolo[1,2-a][1,4]diazocin-5-yl)carbamoyl)benzo[b]thiophen-5-yl)difluoromethyl)phosphonic acid] | 3 to 30 | ≤ 0.1
CC(=O)N1CC[C@H]2CC[C@@H](C(=O)Nc3ccc(-c4ccccc4)cc3)N2C(=O)[C@@H](NC(=O)c2cc3c(F)c(C(F)(F)P(=O)(O)O)ccc3s2)C1 [Compound 48, ((2-(((5S,8S,10aR)-8-([1,1′-biphenyl]-4-ylcarbamoyl)-3-acetyl-6-oxodecahydropyrrolo[1,2-a][1,5]diazocin-5-yl)carbamoyl)-4-fluorobeno[b]thiophen-5-yl)difluoromethyl)phosphonic acid] | 0.3 to 3 | 0.1 to 1
Cc1ccc2onc(C(=O)N3CC[C@H]4CC[C@@H](C(=O)N5CCOCC5)N4C(=O)[C@@H](NC(=O)c4ccc5ccc(CP(=O)(O)O)nc5c4)C3)c2c1 [Compound 396, ((7-(((5S,8S,10aR)-3-(5-methylbenzo[d]isoxazole-3-carbonyl)-8-(morpholine-4-carbonyl)-6-oxodecahydropyrrolo [1,2-a][1,5]diazocin-5-yl)carbamoyl)quinolin-2-yl)methyl)phosphonic acid] | 3 to 30 | > 10
